Literature values, collected in patent publication US9744299B2, “Data processing device for an anesthesia device” (Dräger Medical GmbH, priority 2012, dated 2017).
Read-outs that look alike come from different tables or passages of the source.

Assays:
[1] = tested on: patients; conditions: effect-site concentration, 50% of patients tolerate "Shake and Shout"
[2] = tested on: patients; conditions: steepness of the rise of the response surface; property of the drug

For `CC(C)c1cccc(C(C)C)c1O` [Propofol, propofol], the C50hyp ([1]; C50Prop) is listed as 2.99 µg/mL and the “h (Steepness)” value [2] is listed as 3.46.
In the case of `FCOC(C(F)(F)F)C(F)(F)F` [sevoflurane], the C50hyp ([1]; C50Vol) is given as 1.47 vol. %.
